The results in this text go back to patent publication US11369618B2, “Compounds, compositions and methods for prevention and/or treatment of cancer” (THE TRUSTEES OF THE UNIVERSITY OF PENNSYLVANIA, priority 2016, dated 2022).

Data set [1] deals with tumor infiltrating immune cells. Briefly: immune profiling of tumors in YUMM 1.7 melanoma bearing mice. Format: in vivo, mouse. The text has this: FIGS. 15A-15C illustrate the finding that G-1 treatment in vivo alters tumor infiltrating immune cells. […] FIG. 15B: Heatmap summarizing immune profiling across biological replicates, n=5 per group, * denotes significance by two-way ANOVA assuming each immune population is an independent measurement of immune activation. FIG. 15C: Quantification of individual immune populations from FIG. 15B, n=5 per group.

Data set [2] deals with pCREB and c-Myc in NSCLC line LLC1. Briefly: Western blot of LLC1 cells treated with G-1. Format: cell-based. The settings on record: LLC1, 500 nM. How it is done: FIGS. 18A-18G illustrate the finding that GPER signaling reduces NSCLC cell proliferation in vitro and in vivo and has combinatorial effects with αPD-1 immunotherapy. FIG. 18A: Western blot for pCREB of LLC1 cells treated with 500 nM G-1 for 30 minutes. FIG. 18B: Proliferation assay of LLC1 treated with 500 nM G-1 for 6 days. FIG. 18C: Western blot for c-Myc of LLC1 cells treated with 500 nM G-1 for 6 days. FIG. 18D: Western blot for c-Myc of LLC1 cells treated with 500 nM G-1 over a time-course. […] FIG. 18F: Tumor volumes over time of LLC1 tumor bearing mice treated with vehicle or G-1, as well as αPD-1 antibody or isotype antibody control (2A3). FIG. 18G: Survival curve of mice treated with vehicle or G-1, as well as αPD-1 antibody or isotype antibody control (2A3).
Reproductive history influences lung cancer as well. Women have a decreasing risk of lung cancer correlated with the number children they have had.
(In general: Immunoblotting shows a protein as a band on a membrane.)

For data set [3], the system named is mouse and human melanoma cell lines (B16F10, WM46, WM51, WM3702). Briefly: proliferation assay of mouse and human melanoma cell lines in vitro. Format: cell-based. The settings on record: estrogen 25 nM E2, G-1 100 nM, vs delivery vehicle. The text has this: (§1) FIGS. 4A-4F illustrate the finding that GPER signaling slows proliferation and drives differentiation in mouse and human melanoma. FIG. 4A: 5 day proliferation assay of B16F10, WM46 (BRAF^V600E), WM51 (BRAF^V600E), and WM3702 (NRAS^Q61L) cells treated with estrogen (E2), * denotes significance by a two-tailed T-test, n=3 per group. FIG. 4B: 5 day melanin assay of B16F10, WM46 (BRAF^V600E), WM51 (BRAF^V600E), and WM3702 (NRAS^Q61L) cells treated with E2, * denotes significance by a two-tailed T-test, n=3 per group. FIG. 4C: 5 day proliferation assay of B16F10, WM46 (BRAF^V600E), WM51 (BRAF^V600E) and WM3702 (NRAS^Q61L) cells treated with GPER agonist (G-1), * denotes significance by a two-tailed T-test, n=3 per group. FIG. 4D: 5 day melanin assay of B16F10, WM46 (BRAF^V600E), WM51 (BRAF^V600E), and WM3702 (NRAS^Q61L) cells treated with G-1, * denotes significance by a two-tailed T-test, n=3 per group. FIG. 4E: 3 day proliferation assay of B16F10 cells treated with a dose response of G-1, * denotes significance One-way ANOVA with Tukey's multiple comparison test, n=5 per group. FIG. 4F: Western blot of B16F10 cells treated for 16 hours with a saturating dose response of G-1. […]
(§2) Tumor cell proliferation slowed in both mouse and human melanoma cells following treatment with estrogen or G-1, a specific GPER agonist. […] Cell proliferation and differentiation (melanin production) were measured.

The test system is the same in data set [4]. Briefly: melanin assay (differentiation) of mouse and human melanoma cell lines in vitro. Format: cell-based. The settings on record: estrogen 25 nM E2, G-1 100 nM, vs delivery vehicle.
Excerpt: as §1, §2

The next data set concerns B16F10 melanoma cells. Briefly: melanoma cells treated with G-1, HDACi, or in combination (Western blot, B16F10 proliferation assay). Format: cell-based. The text has this:
FIG. 16B: Western blot of p-RB, c-Myc, and H3K56ac in melanoma cells after treatment with G-1, HDACi, or in combination. FIG. 16C: Proliferation assay of B16F10 melanoma cells after treatment with G-1, HDACi, or in combination.
Histone acetyl marks are removed by several histone deacetylases (HDACs), which are aberrantly regulated in many cancers. Although HDAC inhibitors are approved as anticancer agents for cutaneous lymphoma, myeloma, and […], their utility in melanoma is unclear. […] HDAC efficacy may have been limited by the fact that trials were conducted without a differentiation driver to promote formation of acetylation marks on histones or other critical oncoproteins (such as c-Myc) that would then be stabilized by the HDACi. Without wishing to be limited by any theory, the anticancer effects of HDAC inhibitors can be potentiated by combination drug regimens that also promote histone acetylation at functionally critical sites. HDACi and GPER agonists independently promote melanoma cell differentiation, and also cooperate to potentiate the activity of each other (FIGS. 16B-16C).

The test system of the next data set is B16F10 melanoma. Put plainly: B16F10 melanoma-bearing syngeneic mice treated with subcutaneous G-1, αPD-1 antibody, or both. It counts as in vivo. The text has this: FIGS. 14A-14F illustrate the finding that treatment of melanoma bearing mice with G-1 and αPD-1 immunotherapy dramatically extends survival. FIG. 14A: Experimental timeline of B16F10 bearing mice treated with vehicle or G-1, as well as αPD-1 antibody or isotype antibody control (2A3), n=10 per group. FIG. 14B: Tumor volumes of treatment groups at Day 14, * denotes significance One-way ANOVA with Tukey's multiple comparison test. FIG. 14C: Survival curve of mice treated with vehicle or G-1, as well as isotype antibody control (2A3) or αPD-1 antibody. FIG. 14D: Experimental outline of YUMM1.7 bearing mice treated with vehicle or G-1, as well as isotype antibody control (2A3) or αPD-1 antibody. Treatment was started at day 14 after tumors reached 4-5 mm in diameter. n=5 per group. FIG. 14E: Tumor volumes over time of treatment groups. FIG. 14F: Survival curve of mice treated with vehicle or G-1, as well as αPD-1 antibody or isotype antibody control (2A3).
To determine whether G-1 has therapeutic utility as a systemically delivered agent with or without immune checkpoint inhibitors, B16F10 melanoma-bearing syngeneic mice were treated with subcutaneous G-1, αPD-1 antibody, or both, and survival compared to matched mice treated with vehicle and isotype antibody controls (in particular, non-specific isotype control antibody 2A3) (FIG. 14A). Total tumor volume was assessed after 5-50 days.

With `CC(=O)c1ccc2c(c1)[C@@H]1C=CC[C@@H]1[C@H](c1cc3c(cc1Br)OCO3)N2` (relative stereo) [Compound G-1, rel-1-[4-(6-bromo-1,3-benzodioxol-5-yl)-3aR,4S,5,9bS-tetrahydro-3H-cyclopenta[c]quinolin-8-yl]-ethanone], the “tumor infiltrating immune cell subsets” value in data set [1] is “increased several immune cell subsets, including T cells and NK cells”. Moreover, the pCREB levels entry in data set [2] (30 minutes) is listed as “elevated pCREB levels”. Further, the c-Myc protein entry in data set [2] (long-term treatment (6 days)) was “reduction of c-Myc protein”. Further, the melanoma cell proliferation entry in data set [3] is “slowed melanoma cell proliferation”. Further, the “differentiation (melanin production)” value in data set [4] was “drove differentiation”. Moreover, in the data set on B16F10 melanoma cells, the “combined effect of G-1 and HDACi in melanoma cells” value is listed as “synergizes with HDAC inhibitors”. In addition, the tumor growth result with B16F10 melanoma (B16F10-bearing mice) is given as “slowed tumor growth”. For the same compound, in the data set with B16F10 melanoma (B16F10-bearing mice, subcutaneous G-1), the survival result is listed as “extended survival to the same extent as αPD-1”. The tolerability result in the data set with B16F10 melanoma (mice) is listed as “well tolerated”.
